Positions count from the first letter of the chain named. *1 amine or outer side, *2 acyl side, *3 side chain or, on linkers, in order; H or OH if unused. Where a SMILES comes first, the peptide text is derived from it. γGlu = O=C(O)[CH](CCC(=O)[*:2])N[*:1]
Experiments:
human CaSR R66E mutant = molecular target: T1, human CaSR R66E mutant (Homo sapiens, UniProt P41180, R66E); experiment: Calcium mobilization assay, CaSR R66E mutant; format: cell-based; settings: for Response in calcium mobilization assay: in words
T1 construct: (N); expressed in transfected cells; host or cells: PEAKrapid cells (ATCC), pcDNA 3.1, transient transfection
T1 sequence (P41180 20-1078 R66E): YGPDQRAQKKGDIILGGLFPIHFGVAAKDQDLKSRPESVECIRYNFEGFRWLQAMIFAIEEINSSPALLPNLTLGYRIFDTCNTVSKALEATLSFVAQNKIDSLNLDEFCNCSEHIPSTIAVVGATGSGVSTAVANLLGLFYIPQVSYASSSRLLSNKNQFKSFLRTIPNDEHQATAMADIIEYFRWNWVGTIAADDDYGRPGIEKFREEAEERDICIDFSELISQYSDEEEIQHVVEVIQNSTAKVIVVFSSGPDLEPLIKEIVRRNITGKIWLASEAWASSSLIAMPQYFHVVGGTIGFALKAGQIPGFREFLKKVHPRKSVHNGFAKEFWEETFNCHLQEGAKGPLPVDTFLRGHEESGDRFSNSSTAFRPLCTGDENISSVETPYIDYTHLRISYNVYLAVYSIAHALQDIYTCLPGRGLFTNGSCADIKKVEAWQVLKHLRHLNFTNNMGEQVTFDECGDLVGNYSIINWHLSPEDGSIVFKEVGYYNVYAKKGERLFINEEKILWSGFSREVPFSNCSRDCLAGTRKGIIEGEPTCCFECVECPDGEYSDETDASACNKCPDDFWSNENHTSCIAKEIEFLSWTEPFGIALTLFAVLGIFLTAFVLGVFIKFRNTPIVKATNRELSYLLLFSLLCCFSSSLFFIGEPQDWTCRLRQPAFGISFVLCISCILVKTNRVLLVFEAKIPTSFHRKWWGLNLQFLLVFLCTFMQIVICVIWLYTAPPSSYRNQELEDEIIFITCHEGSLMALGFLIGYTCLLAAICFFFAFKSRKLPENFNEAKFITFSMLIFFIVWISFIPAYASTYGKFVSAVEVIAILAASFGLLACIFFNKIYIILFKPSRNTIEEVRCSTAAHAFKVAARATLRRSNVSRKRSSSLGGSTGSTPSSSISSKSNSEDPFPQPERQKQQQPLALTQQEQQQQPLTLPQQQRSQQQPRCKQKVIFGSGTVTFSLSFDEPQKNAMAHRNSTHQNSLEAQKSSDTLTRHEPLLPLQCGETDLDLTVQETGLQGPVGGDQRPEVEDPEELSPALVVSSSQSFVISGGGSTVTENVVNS
Experimental: (§1) The CaSR receptor responsiveness was assessed by using PEAK^rapid cells (ATCC, Manassas, VA, USA) transiently transfected with the receptor DNA by the method reported by Kitajima et al.[6]. Briefly, human CaSR or its mutant cDNA with a signal sequence (MAFYSCCWVLLALTWHTSA) followed by FLAG-tag (DYKDDDDK) were inserted into pcDNA 3.1 expression vectors in Opti-MEM I medium (Thermo Fisher Scientific), mixed with FuGENE 6 (Roche), and poured onto PEAK^rapid cells grown at a submaximal concentration. After culturing for 24 h in 96-well plates, the cells were incubated with 5 µM Calcium-5 solution (Calcium-5 assay kit, Molecular Devices) for 45–60 min, and measurements were performed using a plate reader (FDSS/µCELL, Hamamatsu Photonics, Shizuoka, Japan) and its associated software. The activation of CaSR expressed in cells increases the intracellular Ca^2+ concentration, which is measured using a Ca^2+-sensitive dye. The binding of Ca^2+ to the Ca^2+-sensitive dye increases dye fluorescence, with excitation at 485 nm and emission at 525 nm. Test compounds were dissolved and administered in the assay buffer (146 mM NaCl, 1 mM MgSO4, 20 mM HEPES, 1 mM CaCl2, 2.5 mM probenecid, and 1.39 mM glucose, pH 7.4). Transiently transfected cells were challenged with compounds and compared with the vehicle alone and/or mock-transfected cells. The concentration dependence of the fluorescence intensity (influx of Ca^2+) was analyzed using the plate reader at 1 s intervals for 180 s. For the dose–response curve calculations, peak fluorescence responses after the addition of compounds were corrected for, normalized to the background fluorescence (ΔF/F = –F − F0)/F0), and baseline noise was subtracted. Dose–response curves were calculated by non-linear regression using GraphPad PRISM 8.0.

human CaSR F42S mutant = molecular target: T2, human CaSR F42S mutant (Homo sapiens, UniProt P41180, F42S); experiment: Calcium mobilization assay, CaSR F42S mutant; format: cell-based; settings: for Response in calcium mobilization assay: in words
T2 construct: expressed in transfected cells; host or cells: PEAKrapid cells (ATCC), pcDNA 3.1, transient transfection
T2 sequence (P41180 20-1078 F42S): T1 sequence (P41180 20-1078 R66E) with F23S, E47R
Experimental: as §1

| Structure (SMILES) | Response in calcium mobilization assay (human CaSR R66E mutant) | Response in calcium mobilization assay (human CaSR F42S mutant) | Emax (% of wild-type values) (human CaSR R66E mutant) | EC50 (human CaSR R66E mutant; mean ± s.e.m., n = 3) [mM] | Emax (% of wild-type values) (human CaSR F42S mutant) | EC50 (human CaSR F42S mutant; mean ± s.e.m., n = 3) [mM] |
| --- | --- | --- | --- | --- | --- | --- |
| N[C@@H](Cc1ccc(O)cc1)C(=O)O [L-Tyr, L-tyrosine] | no response | no response | – | – | – | – |
| CC(C)C(NC(=O)CCC(N)C(=O)O)C(=O)NCC(=O)O (stereo not drawn) [γ-EVG, γ-glutamyl-valyl-glycine] (γGlu-Val-Gly-OH; configuration not given here) | completely abolished the activity | – | – | – | – | – |
| [Ca+2].[Cl-].[Cl-] [CaCl2] | – | – | 105.0 % of WT | 3.47 ± 0.4 | 87.0 % of WT | 6.6 ± 0.3 |
| CC(C)[C@H](NC(=O)CC[C@H](N)C(=O)O)C(=O)O [γ-EV, γ-glutamyl-valine] | no response | no response | – | – | – | – |

Reference: publication PMC11785791, “Cryo-EM structure of the calcium-sensing receptor complexed with the kokumi substance γ-glutamyl-valyl-glycine” (Scientific Reports, 2025)
